Patent US20090099158A1, “TETRAHYDROISOQUINOLINE COMPOUNDS AS MODULATORS OF THE HISTAMINE H3 RECEPTOR” (priority 2007, published 2009)

Biological target: T1, cloned human H3 receptors (Homo sapiens, UniProt Q9Y5N1)
T1 construct: expressed in transfected cells; host or cells: SK-N-MC cells
Test: H3 Receptor Binding (Human)
Settings: cloned human H3 receptors stably expressed in SK-N-MC cells; average of the results obtained
Procedure: Binding of compounds to the cloned human H3 receptors, stably expressed in SK-N-MC cells, was performed as described by Barbier, A. J. et al. (Br. J. Pharmacol. 2004, 143(5), 649-661). Data for compounds tested in this assay are presented in Table 1 as an average of the results obtained.

T1 sequence (Q9Y5N1 whole entry): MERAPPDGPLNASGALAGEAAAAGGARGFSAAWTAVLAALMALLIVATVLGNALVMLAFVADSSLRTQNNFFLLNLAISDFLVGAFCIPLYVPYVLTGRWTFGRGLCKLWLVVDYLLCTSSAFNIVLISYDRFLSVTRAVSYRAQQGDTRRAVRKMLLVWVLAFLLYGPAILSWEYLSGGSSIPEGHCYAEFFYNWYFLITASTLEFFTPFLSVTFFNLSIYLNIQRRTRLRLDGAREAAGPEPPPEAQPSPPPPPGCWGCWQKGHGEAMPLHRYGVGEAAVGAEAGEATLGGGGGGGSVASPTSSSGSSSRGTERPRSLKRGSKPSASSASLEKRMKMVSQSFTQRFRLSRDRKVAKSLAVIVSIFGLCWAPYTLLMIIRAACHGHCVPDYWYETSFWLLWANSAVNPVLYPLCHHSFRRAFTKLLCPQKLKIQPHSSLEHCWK

Row | Compound | Ki [nM]
1 | O=C(c1ccc2c(c1)CCN(Cc1ccccc1)C2)N1CCCCC1 [Example 12, (2-Benzyl-1,2,3,4-tetrahydro-isoquinolin-6-yl)-piperidin-1-yl-methanone] | 7000
2 | COc1ccccc1C(=O)N1CCc2cc(C(=O)N3CCN(C4CCCCC4)CC3)ccc2C1 [Example 78, (4-Cyclohexyl-piperazin-1-yl)-[2-(2-methoxy-benzoyl)-1,2,3,4-tetrahydro-isoquinolin-6-yl]-methanone] | 70
3 | O=C(c1ccc2c(c1)CCN(C1CCCC1)C2)N1CCOCC1 [Example 172, (2-Cyclopentyl-1,2,3,4-tetrahydro-isoquinolin-6-yl)-morpholin-4-yl-methanone] | 2800
4 | CCCN1CCc2cc(C(=O)N3CCN4CCCCC4C3)ccc2C1 (stereo not drawn) [Example 181, (Octahydro-pyrido[1,2-a]pyrazin-2-yl)-(2-propyl-1,2,3,4-tetrahydro-isoquinolin-6-yl)-methanone] | 2
5 | O=C(c1cccc(Cl)c1)N1CCc2cc(C(=O)N3CCC[C@H]3CN3CCCC3)ccc2C1 [Example 51, (S)-(3-Chloro-phenyl)-[6-(2-pyrrolidin-1-ylmethyl-pyrrolidine-1-carbonyl)-3,4-dihydro-1H-isoquinolin-2-yl]-methanone] | 14
6 | O=C(c1ccc2c(c1)CCN(C(=O)c1ccccc1F)C2)N1CCN(C2CCCC2)CC1 [Example 66, (4-Cyclopentyl-piperazin-1-yl)-[2-(2-fluoro-benzoyl)-1,2,3,4-tetrahydro-isoquinolin-6-yl]-methanone] | 43
7 | CC(C)N1CCCN(C(=O)c2ccc3c(c2)CCN(C(=O)OC(C)(C)C)C3)CC1 [Example 1, 6-(4-Isopropyl-[1,4]diazepane-1-carbonyl)-3,4-dihydro-1H-isoquinoline-2-carboxylic acid tert-butyl ester] | 8
8 | O=C(c1ccc2c(c1)CCN(C(=O)c1ccc(F)c(O)c1)C2)N1CCCN(C2CCC2)CC1 [Example 141, [6-(4-Cyclobutyl-[1,4]diazepane-1-carbonyl)-3,4-dihydro-1H-isoquinolin-2-yl]-(4-fluoro-3-hydroxy-phenyl)-methanone] | 1
9 | CN(C)c1ccc(C(=O)N2CCc3cc(C(=O)N4CCN(C5CCC5)CC4)ccc3C2)cc1 [Example 117, [6-(4-Cyclobutyl-piperazine-1-carbonyl)-3,4-dihydro-1H-isoquinolin-2-yl]-(4-dimethylamino-phenyl)-methanone] | 13
10 | Cc1ccccc1C(=O)N1CCc2cc(C(=O)N3CCN(C4CCCCC4)CC3)ccc2C1 [Example 82, (4-Cyclohexyl-piperazin-1-yl)-[2-(2-methyl-benzoyl)-1,2,3,4-tetrahydro-isoquinolin-6-yl]-methanone] | 55
11 | O=C(c1ccc2c(c1)CCN(C(=O)C1CCCCC1)C2)N1CC2CN(C3CCC3)CC2C1 (stereo not drawn) [Example 163, (5-Cyclobutyl-hexahydro-pyrrolo[3,4-c]pyrrol-2-yl)-(2-cyclohexanecarbonyl-1,2,3,4-tetrahydro-isoquinolin-6-yl)-methanone] | 170
12 | CC(C)N1CCN(C(=O)c2ccc3c(c2)CCN(C(=O)c2ccccc2)C3)CC1 [Example 28, (2-Benzoyl-1,2,3,4-tetrahydro-isoquinolin-6-yl)-(4-isopropyl-piperazin-1-yl)-methanone] | 16
13 | COc1ccc(C(=O)N2CCc3cc(C(=O)N4CCN(C(C)C)CC4)ccc3C2)cc1 [Example 108, (4-Isopropyl-piperazin-1-yl)-[2-(4-methoxy-benzoyl)-1,2,3,4-tetrahydro-isoquinolin-6-yl]-methanone] | 28
14 | O=C(c1ccc2c(c1)CCN(C(=O)c1ccccc1Cl)C2)N1CCN(C2CCCC2)CC1 [Example 68, [2-(2-Chloro-benzoyl)-1,2,3,4-tetrahydro-isoquinolin-6-yl]-(4-cyclopentyl-piperazin-1-yl)-methanone] | 32
15 | CC(C)N1CCN(C(=O)c2ccc3c(c2)CCN(Cc2ccc(Cl)c(Cl)c2)C3)CC1 [Example 19, [2-(3,4-Dichloro-benzyl)-1,2,3,4-tetrahydro-isoquinolin-6-yl]-(4-isopropyl-piperazin-1-yl)-methanone] | 29
16 | N#Cc1ccc(CN2CCc3cc(C(=O)N4CCN(C5CCC5)CC4)ccc3C2)cc1 [Example 25, 4-[6-(4-Cyclobutyl-piperazine-1-carbonyl)-3,4-dihydro-1H-isoquinolin-2-ylmethyl]-benzonitrile] | 15
17 | CCCN1CCc2cc(C(=O)N3CCCN(C4CCC4)CC3)ccc2C1 [Example 183, (4-Cyclobutyl-[1,4]diazepan-1-yl)-(2-propyl-1,2,3,4-tetrahydro-isoquinolin-6-yl)-methanone] | 1
18 | Cc1ccc(C(=O)N2CCc3cc(C(=O)N4CCN(C5CCCCC5)CC4)ccc3C2)cc1 [Example 83, (4-Cyclohexyl-piperazin-1-yl)-[2-(4-methyl-benzoyl)-1,2,3,4-tetrahydro-isoquinolin-6-yl]-methanone] | 257

Row | Compound | Ki [nM]
19 | O=C(c1ccc2c(c1)CCN(C(=O)c1ccc(F)cc1)C2)N1CCCN(C2CCC2)CC1 [Example 134, [6-(4-Cyclobutyl-[1,4]diazepane-1-carbonyl)-3,4-dihydro-1H-isoquinolin-2-yl]-(4-fluoro-phenyl)-methanone] | 1
20 | O=C(c1ccc(F)cc1)N1CCc2cc(C(=O)N3CCN4CCCCC4C3)ccc2C1 (stereo not drawn) [Example 88, [2-(4-Fluoro-benzoyl)-1,2,3,4-tetrahydro-isoquinolin-6-yl]-(octahydro-pyrido[1,2-a]pyrazin-2-yl)-methanone] | 24
21 | O=C(C1CCCCC1)N1CCc2cc(C(=O)N3CCC[C@H]3CN3CCCC3)ccc2C1 [Example 150, (S)-Cyclohexyl-[6-(2-Pyrrolidin-1-ylmethyl-pyrrolidine-1-carbonyl)-3,4-dihydro-1H-isoquinolin-2-yl]-methanone] | 9
22 | CC(C)(C)c1ccc(C(=O)N2CCc3cc(C(=O)N4CCN5CCCCC5C4)ccc3C2)cc1 (stereo not drawn) [Example 98, [2-(4-tert-Butyl-benzoyl)-1,2,3,4-tetrahydro-isoquinolin-6-yl]-(octahydro-pyrido[1,2-a]pyrazin-2-yl)-methanone] | 38
23 | O=C(C1CCCCC1)N1CCc2cc(CN3CCOCC3)ccc2C1 [Example 167, Cyclohexyl-(6-morpholin-4-ylmethyl-3,4-dihydro-1H-isoquinolin-2-yl)-methanone] | 1390
24 | O=C(c1ccc2c(c1)CCN(C(=O)c1ccccc1Cl)C2)N1CCN(C2CCC2)CC1 [Example 42, (2-Chloro-phenyl)-[6-(4-cyclobutyl-piperazine-1-carbonyl)-3,4-dihydro-1H-isoquinolin-2-yl]-methanone] | 10
25 | O=C(c1ccc2c(c1)CCN(Cc1ccc(C(F)(F)F)cc1)C2)N1CCN(C2CCC2)CC1 [Example 14, (4-Cyclobutyl-piperazin-1-yl)-[2-(4-trifluoromethyl-benzyl)-1,2,3,4-tetrahydro-isoquinolin-6-yl]-methanone] | 20
26 | O=C(c1ccc2c(c1)CCN(C(=O)c1ccccc1)C2)N1CCN(C2CCCC2)CC1 [Example 65, (2-Benzoyl-1,2,3,4-tetrahydro-isoquinolin-6-yl)-(4-cyclopentyl-piperazin-1-yl)-methanone] | 100
27 | O=C(c1ccc2c(c1)CCN(C(=O)c1cccc(Cl)c1)C2)N1CCN(C2CCCCC2)CC1 [Example 76, [2-(3-Chloro-benzoyl)-1,2,3,4-tetrahydro-isoquinolin-6-yl]-(4-cyclohexyl-piperazin-1-yl)-methanone] | 100
28 | O=C(c1ccc2c(c1)CCN(S(=O)(=O)c1ccccc1)C2)N1CCN(C2CCC2)CC1 [Example 103, (2-Benzenesulfonyl-1,2,3,4-tetrahydro-isoquinolin-6-yl)-(4-cyclobutyl-piperazin-1-yl)-methanone] | 22
29 | O=C(c1ccc2c(c1)CCN(C(=O)C1CCC1)C2)N1CCN(C2CCC2)CC1 [Example 31, Cyclobutyl-[6-(4-cyclobutyl-piperazine-1-carbonyl)-3,4-dihydro-1H-isoquinolin-2-yl]-methanone] | 87
30 | CC(C)N1CCN(C(=O)c2ccc3c(c2)CCN(Cc2ccccc2)C3)CC1 [Example 21, (2-Benzyl-1,2,34-tetrahydro-isoquinolin-6-yl)-(4-isopropyl-piperazin-1-yl)-methanone] | 28
31 | O=C(c1ccc2c(c1)CCN(C(=O)c1ccc(F)cc1)C2)N1CCN(C2CCCCC2)CC1 [Example 74, (4-Cyclohexyl-piperazin-1-yl)-[2-(4-fluoro-benzoyl)-1,2,3,4-tetrahydro-isoquinolin-6-yl]-methanone] | 109
32 | Cc1ccc(C(=O)N2CCc3cc(C(=O)N4CCC[C@H]4CN4CCCC4)ccc3C2)cc1 [Example 55, (S)-[6-(2-Pyrrolidin-1-ylmethyl-pyrrolidine-1-carbonyl)-3,4-dihydro-1H-isoquinolin-2-yl]-p-tolyl-methanone] | 22
33 | N#Cc1cccc(C(=O)N2CCc3cc(C(=O)N4CCN(C5CCCCC5)CC4)ccc3C2)c1 [Example 80] | 70
34 | Cc1ccc(C(=O)N2CCc3cc(C(=O)N4CCN(C5CCC5)CC4)ccc3C2)cc1F [Example 127, (4-Cyclobutyl-piperazin-1-yl)-[2-(3-fluoro-4-methyl-benzoyl)-1,2,3,4-tetrahydro-isoquinolin-6-yl]-methanone] | 27
35 | CC(C)(C)c1ccc(C(=O)N2CCc3cc(C(=O)N4CCC[C@H]4CN4CCCC4)ccc3C2)cc1 [Example 49, (S)-(4-tert-Butyl-phenyl)-[6-(2-pyrrolidin-1-ylmethyl-pyrrolidine-1-carbonyl)-3,4-dihydro-1H-isoquinolin-2-yl]-methanone] | 46
36 | O=C(c1ccc2c(c1)CCN(C(=O)c1cccc(F)c1)C2)N1CCN(C2CCCCC2)CC1 [Example 73, (4-Cyclohexyl-piperazin-1-yl)-[2-(3-fluoro-benzoyl)-1,2,3,4-tetrahydro-isoquinolin-6-yl]-methanone] | 109
